From patent US8796282B2, “Method of treating dermatological disorders” (Case Western Reserve University, priority 2007, dated 2014)

Columns and labels:
[1] = system: PEX genes (PEX3, PEX16, PMP22); assay: PEX (peroxisomal) gene expression in a human keratocyte cell line / cultured human keratinocytes exposed to PPARγ agonists; format: cell-based; conditions: for expression of peroxisomal genes (PEX3, PEX16, PMP22): qualitative statement, cultured human keratinocytes
Method: (§1) Quantitative real-time RT-PCR. FAM labeled PCR primers and TaqMan hydrolysis probes for all target genes and 18S rRNA were purchased from Perkin-Elmer Applied Biosystems (Foster City, Calif.). Real-time PCR was performed on an ABI Prism 7700 Sequence Detection System (PE Biosystems) according to the recommendation of the manufacturer. The target gene expression in LPP and control samples was quantitated by the comparative CT method as described in the ABI Prism 7700 Sequence Detection System manual (PE Biosystems).
(§2) Effect of PPARg agonists and antagonists on PEXgenes. Human Hair Follicle Outer Root Sheath Cells (ORS cells) were obtained from ScienCell™ (San Diego, Calif.) and grown in Mesenchymal Stem Cell Medium (MSCM) consisting of 500 ml of basal medium, 25 ml of fetal bovine serum, 5 ml of mesenchymal stem cell growth supplement and 5 ml of penicillin/streptomycin solution. HaCaT cells were cultured in Dulbecco's modified Eagle's medium containing 10% fetal bovine serum under 5% CO2 at 37° C. The different PPAR agonists were added in triplicate in dimethylsulfoxide (<0.1% by volume) for 48 hours to evaluate their effects on PEX gene expression by real-time PCR.

[2] = system: PEX3 gene expression; assay: PEX3 gene expression in cultured outer root sheath (ORS) keratinocytes treated with PPAR agonists, real-time PCR; format: cell-based, human; conditions: for effect on PEX3 gene expression: cultured outer root sheath keratinocytes
Method: (§3) HaCaT keratinocytes were treated with vehicle alone (0.1% DMSO) or with specific agonists (1 μM and 5 μM in 0.1% DMSO) of PPARγ-Ciglitazone (Cig), Rosiglitazone (Rosi), Pioglitazone (Pio) and Troglitazone (Tro), PPARα-WY-14363 and PPARδ-GW50516. After 48 hours, PEX16 gene expression was measured by real-time PCR.
(§4) We directly assessed the role of PPARγ in modulating peroxisomal gene expression by growing HaCat cells (human keratinocyte cell line) in the presence of PPAR agonists (1 μM and 5 μM concentrations in 0.1% DMSO) and monitoring gene expression by real-time PCR (FIG. 5b). The agonists tested were Ciglitazone (Cig), Rosiglitazone (Rosi), Pioglitazone (Pio) and Troglitazone (Tro) specific for PPARγ, WY-14363 specific for PPARα and GW50516 specific for PPARδ. […] We also examined whether expression of the PEX3 gene is modulated by the PPAR agonist Pioglitazone (Pio) in cultured outer root sheath keratinocytes. Cells were grown in the presence or absence of Pio and PEX3 gene expression was monitored by real-time PCR.
as §1
as §2, with “The different PPAR agonists were added in triplicate in dimethylsulfoxide (<0.1% by volume) for 48 hours to evaluate their effects on PEX gene expression by real-time PCR.” left out

[3] = system: PEX16 gene expression; assay: PEX16 gene expression in HaCaT keratinocytes treated with PPAR agonists, real-time PCR; format: cell-based, human; conditions: HaCaT cells, 1 μM and 5 μM in 0.1% DMSO, 48 hours
Method: as §3, §4
Quantitative real-time RT-PCR. […] The target gene expression in LPP and control samples was quantitated by the comparative CT method as described in the ABI Prism 7700 Sequence Detection System manual (PE Biosystems). […]

[4] = system: Patients with LLP; assay: Treatment of patients with lichen planopilaris with low dose Actos; format: in vivo, human; conditions: for inflammatory cells in scalp biopsy histology: one patient, H&E
Method: Patients were treated with Actos (Pioglitazone), a PPARγ agonist that is currently used to treat diabetes. Patients with LLP were given a low dose of Actos, i.e., less than about 15 mg/daily. […] The histology of scalp biopsy of one of the patients before, after one year of treatment, and after two years of treatment are shown in FIGS. 18-20. […] Therefore, PPAR agonist is effective in reducing symptoms.

SMILES | expression of peroxisomal genes (PEX3, PEX16, PMP22) [1] | effect on PEX3 gene expression [2] | effect on PEX 16 gene expression [3] | also measured
Cc1c(C)c2c(c(C)c1O)CCC(C)(COc1ccc(CC3SC(=O)NC3=O)cc1)O2 (single isomer, unassigned; (+)) [Troglitazone, (+)-5[[4-[(3,4-dihydro-6-hydroxy-2,5,7,8-tetramethyl-2H-1-benzopyran-2-yl)methoxy]phenyl]methyl]-2,4-thiazolidinedione] | induce the expression | – | – | –
CC1(COc2ccc(CC3SC(=O)NC3=O)cc2)CCCCC1 (stereo not shown) [Ciglitazone, 5-[4-[(1-methylcyclohexyl)methoxy]benzyl]thiazolidine-2,4-dione] | induce the expression | – | – | –
Cc1cc(SCc2sc(-c3ccc(C(F)(F)F)cc3)nc2C)ccc1OCC(=O)O [GW50516] | – | minimal effect | minimal effect | –
CCc1ccc(CCOc2ccc(CC3SC(=O)NC3=O)cc2)nc1 (stereo not shown) [Pioglitazone, 5-[4-[2-(5-ethylpyridin-2-yl)ethoxyl]benzyl]thiazolidine-2,4-dione] | induce the expression | – | – | increase in PEX3 gene expression ([2]; outer root sheath keratinocytes, 1 μM, compared to vehicle alone (0.1% DMSO)): 4 fold; itching, burning and pain associated with lichen planopilaries ([4]; LLP patients, less than about 15 mg/daily, patient-reported): significant decrease; inflammatory cells in scalp biopsy histology ([4]; after 1 year of treatment): Reduction is already seen; inflammatory cells in scalp biopsy histology ([4]; at two years of treatment): complete clearing of inflammatory cells
CN(CCOc1ccc(CC2SC(=O)NC2=O)cc1)c1ccccn1 (stereo not shown) [Rosiglitazone, 5-[4-[2-(N-methyl-N-(2-pyridyl)amino]ethoxy]benzyl]thiazolidine-2,4-dione] | induces the expression | – | – | increase in PEX gene expression ([1]; human keratocyte cell line): three-fold increase
Cc1cccc(Nc2cc(Cl)nc(SCC(=O)O)n2)c1C [WY-14363] | – | minimal effect | minimal effect | –
